Legend:
Format in all cases: cell-based
[1] = system: E. faecium A2373; test: MIC of antibiotics with or without PAG/AOAA; details: for MIC: Enterococcus faecium, A2373, read-out: Minimum inhibitory concentration
Method: (§1) E. faecalis (ATCC 29212) cultures were prepared at initial inoculums of ˜5×10^5 CFU/ml in Mueller-Hinton II Broth (cation-adjusted). Aliquots of 190 μl were dispensed to each well of a fresh set of plates, and 10 μl of an antibiotic solution (levofloxacin, meropenem, gentamicin, piperacillin, linezolid, cefepime, daptomycin, vancomycin, or chloramphemicol) were transferred to the corresponding wells in each bacterial plate (FIG. 13). For each antibiotic, the starting concentration was 2×MIC (minimum inhibitory concentration) with serial ½ dilutions. Two sets of dilutions were prepared, and to one of them 0.1 mM AOAA was added. The resulting plates were kept at 37° C. and 85% humidity for 20 hours. All nine antibiotics tested were potentiated by AOAA, with respective MICs dropped from 8-fold to 32-fold (FIG. 13).
(§2) Minimum inhibitory concentration (MIC) determination was conducted as described in Example 7, above. To assess antibiotic potentiation by AOAA and PAG, MIC was determined for nine antibiotics (levofloxacin, meropenem, gentamicin, piperacillin, linezolid, cefepime, daptomycin, vancomycin, and chloramphemicol) and four bacterial strains (E. faecium (A2373), E. faecalis ([…]), S. pneumoniae (ATCC 49619), and P. aeruginosa (PAO1)) in the presence of antibiotic alone, 1 mM PAG, 0.1 mM AOAA, or 0.5 mM PAG+0.05 mM AOAA. The smaller the MIC value, the stronger the effect of antibiotic potentiation.

[2] = system: E. faecalis ATCC29212; test: MIC of antibiotics with or without PAG/AOAA; details: for MIC: Enterococcus faecalis, ATCC29212, read-out: Minimum inhibitory concentration
Method: Bacterial cultures were prepared at initial inoculums of ˜5×10^5 CFU/ml, and aliquots of 190 μl per well were dispensed. Ten μl of the indicated antibiotic solutions were added to each well. The starting concentration for each antibiotic solution was 2×MIC, with serial ½ dilutions. Two sets of dilutions were prepared, and 0.1 mM AOAA was added to one set. The plates were kept at 37° C. and 85% humidity for 20 hours.
as §1, §2

[3] = system: P. aeruginosa PAO1; test: MIC of antibiotics with or without PAG/AOAA; details: for MIC: Pseudomonas aeruginosa, PAO1, read-out: Minimum inhibitory concentration
Method: as §2

[4] = system: S. pneumoniae ATCC49619; test: MIC of antibiotics with or without PAG/AOAA; details: for MIC: Streptococcus pneumoniae, ATCC49619, read-out: Minimum inhibitory concentration
Method: as §2

[5] = system: E. coli ΔsseA (3MST-deficient) strain; details: Table 1; relative values of growth inhibition (negative numbers), ΔsseA vs wt E. coli
[6] = in the presence of 0.5 mM PAG + 0.05 mM AOAA

| Compound | Minimum inhibitory concentration ([1]; in the presence of 0.1 mM AOAA) | Minimum inhibitory concentration [1, 6] [µg/mL] | Minimum inhibitory concentration ([1]; in the presence of 1 mM PAG) [µg/mL] | Minimum inhibitory concentration ([2]; in the presence of 0.1 mM AOAA) | Minimum inhibitory concentration [2, 6] [µg/mL] | Minimum inhibitory concentration ([2]; in the presence of 1 mM PAG) [µg/mL] | Minimum inhibitory concentration ([3]; in the presence of 0.1 mM AOAA) [µg/mL] | Minimum inhibitory concentration [3, 6] [µg/mL] | Minimum inhibitory concentration ([3]; in the presence of 1 mM PAG) [µg/mL] | Minimum inhibitory concentration ([4]; in the presence of 0.1 mM AOAA) [µg/mL] | Minimum inhibitory concentration [4, 6] [µg/mL] | Minimum inhibitory concentration ([4]; in the presence of 1 mM PAG) [µg/mL] | ΔsseA inhibition of growth [5] | other results |
| --- | --- | --- | --- | --- | --- | --- | --- | --- | --- | --- | --- | --- | --- | --- |
| CO/N=C(\C(=O)N[C@@H]1C(=O)N2C(C(=O)[O-])=C(C[N+]3(C)CCCC3)CS[C@H]12)c1csc(N)n1 [Cetepine, cefepime] | >64 µg/mL | >64 | >64 | 2 µg/mL | 8 | 32 | 2 | 1 | 2 | 0.125 | 0.125 | 0.125 |  | Minimum inhibitory concentration ([1]; antibiotic alone): >64 µg/mL; Minimum inhibitory concentration ([2]; antibiotic alone): 32 µg/mL; Minimum inhibitory concentration ([3]; antibiotic alone): 2 µg/mL; Minimum inhibitory concentration ([4]; antibiotic alone): 0.125 µg/mL |
| gentamicin | >64 µg/mL | >64 | >64 | 1 µg/mL | 4 | 32 | 2 | 4 | 2 | 8 | 16 | 32 |  | Minimum inhibitory concentration ([1]; antibiotic alone): >64 µg/mL; Minimum inhibitory concentration ([2]; antibiotic alone): 32 µg/mL; Minimum inhibitory concentration ([3]; antibiotic alone): 2 µg/mL; Minimum inhibitory concentration ([4]; antibiotic alone): 32 µg/mL |
| C[C@H]1COc2c(N3CCN(C)CC3)c(F)cc3c(=O)c(C(=O)O)cn1c23 [Levoflaxacin, levofloxacin] | 2 µg/mL | 2 | 2 | 0.125 µg/mL | 0.5 | 1 | 0.5 | 0.5 | 0.5 | 0.5 | 0.5 | 1 |  | MIC ([1]; antibiotic alone): 2 µg/mL; MIC ([2]; antibiotic alone): 1 µg/mL; MIC ([3]; antibiotic alone): 0.5 µg/mL; MIC ([4]; antibiotic alone): 2 µg/mL |
| CCCCCCCCCC(=O)N[C@@H](Cc1c[nH]c2ccccc12)C(=O)N[C@H](CC(N)=O)C(=O)N[C@@H](CC(=O)O)C(=O)N[C@@H]1C(=O)NCC(=O)N[C@@H](CCCN)C(=O)N[C@@H](CC(=O)O)C(=O)N[C@H](C)C(=O)N[C@@H](CC(=O)O)C(=O)NCC(=O)N[C@H](CO)C(=O)N[C@@H]([C@H](C)CC(=O)O)C(=O)N[C@@H](CC(=O)c2ccccc2N)C(=O)O[C@@H]1C [Daptomycin, daptomycin] | ≦1 μg/ml | 4 | 2 | ≦0.06 μg/ml | 1 | 2 | >64 | >64 | >64 | 0.063 | 0.125 | 0.125 |  | MIC ([1]; antibiotic alone): 4 µg/mL; MIC ([2]; antibiotic alone): 2 µg/mL; MIC ([3]; antibiotic alone): > 64 µg/mL; MIC ([4]; antibiotic alone): 0.125 µg/mL |
| CC(=O)NC[C@H]1CN(c2ccc(N3CCOCC3)c(F)c2)C(=O)O1 [Linezold, linezolid] | 2 µg/mL | 4 | 4 | 0.25 µg/mL | 2 | 4 | >64 | >64 | >64 | 0.5 | 1 | 2 |  | MIC ([1]; antibiotic alone): 4 µg/mL; MIC ([2]; antibiotic alone): 4 µg/mL; MIC ([3]; antibiotic alone): > 64 µg/mL; MIC ([4]; antibiotic alone): 2 µg/mL |
| CCN1CCN(C(=O)N[C@@H](C(=O)N[C@@H]2C(=O)N3[C@@H]2SC(C)(C)[C@@H]3C(=O)O)c2ccccc2)C(=O)C1=O [Piperacilin, piperacillin] | 6 µg/mL | >64 | >64 | 0.25 µg/mL | 1 | 2 | 4 | 4 | 4 | 0.25 | 0.5 | 0.5 |  | Minimum inhibitory concentration ([1]; antibiotic alone): >64 µg/mL; Minimum inhibitory concentration ([2]; antibiotic alone): 2 µg/mL; Minimum inhibitory concentration ([3]; antibiotic alone): 4 µg/mL; Minimum inhibitory concentration ([4]; antibiotic alone): 0.5 µg/mL |
| CC(Oc1ccccc1)C(=O)N[C@@H]1C(=O)N2[C@@H]1SC(C)(C)[C@@H]2C(=O)O (some centres unmarked) [Phenethicillin] |  |  |  |  |  |  |  |  |  |  |  |  | −216 |  |
| CO[C@@]1(NC(=O)C(C(=O)O)c2ccc(O)cc2)C(=O)N2C(C(=O)O)=C(CSc3nnnn3C)CO[C@@H]21 (some centres unmarked) [Moxalactam] |  |  |  |  |  |  |  |  |  |  |  |  | −171 |  |
| Acriflavine |  |  |  |  |  |  |  |  |  |  |  |  | −295 |  |
| CCn1cc(C(=O)O)c(=O)c2cc(F)c(N3CCNCC3)cc21 [Norfloxacin] |  |  |  |  |  |  |  |  |  |  |  |  | −212 |  |
| [H]/N=C(/N)N[C@H]1[C@H](O)[C@@H](O)[C@H](O[C@@H]2O[C@@H](C)[C@](O)(C=O)[C@H]2O[C@@H]2O[C@@H](CO)[C@H](O)[C@@H](O)[C@@H]2NC)[C@@H](N/C(N)=N\[H])[C@@H]1O [Streptomycin] |  |  |  |  |  |  |  |  |  |  |  |  | −421 |  |
| CCOc1ccc2ccccc2c1C(=O)N[C@@H]1C(=O)N2[C@@H]1SC(C)(C)[C@@H]2C(=O)O [Nafcillin] |  |  |  |  |  |  |  |  |  |  |  |  | −227 |  |
| CC(C)NCC(O)COc1cccc2ccccc12 (centres unmarked) [Propranolol] |  |  |  |  |  |  |  |  |  |  |  |  | −263 |  |
| Colistin |  |  |  |  |  |  |  |  |  |  |  |  | −102 |  |

Reference: patent US20140066362A1, “METHOD FOR TREATING INFECTIONS BY TARGETING MICROBIAL H2S-PRODUCING ENZYMES” (NEW YORK UNIVERSITY, priority 2011, published 2014)
